Assay results from ChEMBL document CHEMBL1150928, “A new antitubercular mulinane diterpenoid from Azorella madreporica Clos” (J Nat Prod, 1998).
Values after ≈ are worked out from the molar mass of the structure shown.

How the values were obtained:
[1] = test system: Mycobacterium tuberculosis; assay: Antitubercular activity against Mycobacterium tuberculosis H37Rv ATCC 27294; assay type: functional
Vero = assay: Cytotoxicity against african green monkey Vero cells; assay type: cell-based; conditions: Chlorocebus sabaeus

Row | SMILES | MIC [1] | IC50 (Vero)
1 | CC(C)[C@H]1CC[C@@H]2[C@]1(C)CC[C@@]1(C)CC[C@@](C)(O)[C@@H]3C[C@@]231 | 20 µg/mL (≈ 68.8 µM) | 184 µg/mL (≈ 633 µM)
2 | CO[C@H]1/C=C/O[C@@]2(C)Oc3c(C)c(O)c4c(O)c(c(/C=N/N5CCN(C)CC5)c(O)c4c3C2=O)NC(=O)/C(C)=C\C=C\[C@H](C)[C@H](O)[C@@H](C)[C@@H](O)[C@@H](C)[C@H](OC(C)=O)[C@@H]1C [RIFAMPIN] |  | > 158 µg/mL
